Measured values reported in US20080206761A1, “Ex Vivo Gene Expression in Whole Blood as a Model of Assessment of Individual Variation to Dietary Supplements” (priority 2005, published 2008).

Experiments:
Format in all cases: cell-based, human
IL-4 mRNA = assay: PHA-induced IL-4 mRNA expression in heparinized whole blood ex vivo; settings: for ΔΔCt (mean ± standard deviation, n = 3), IL-4 mRNA: supplement 30 min, then 100 μg/mL PHA 2 h, concentrations per footnote; for effect on PHA-induced IL-4 expression, in words: summary over 7 subjects of Table I
Protocol: (§1) In this embodiment, phytohemagglutinin-induced gene expression of interleukin-2 (IL-2), interleukin-4 (IL-4), and tumor necrosis factor-α (TNF-α) were quantitated in the following manner. Fifty μL of heparinized whole blood was incubated with various dietary supplements for a period of 30 minutes. The following supplements were employed: vitamins A, C, and D, epigallocatechin gallate (from green tea), genistein (from soy), and curcumin (from the spice turmeric). Vitamin A is known to stimulate the immune system. […] Vitamin D appears to have protective effects against certain cancers. Epigallocatechin gallate is a powerful antioxidant, appears to reduce the multidrug resistance found in cancer cells, and preferentially induces apoptosis in neoplastic cells. Genistein has been found in some studies to have anticarcinogenic activity; possible mechanisms of action include upregulation of apoptosis, inhibition of angiogenesis, inhibition of DNA topoisomerase II and inhibition of protein tyrosine kinases. Curcumin has proapoptotic effects in neoplastic cells and interferes with the activity of the transcription factor NF-κB, which is often highly overexpressed in such cells.
(§2) After incubation with the dietary supplement, 100 μg/mL phytohemagglutinin (PHA) was added and incubation was continued for an additional 2 hours at 37° C. The concentration of each dietary supplement (see Table I, note) was slightly higher than reported blood levels. Then mRNA was purified, cDNA was synthesized, and the levels of IL-2, IL-4, and TNF-α were quantitated by TaqMan real time polymerase chain reaction (PCR) (see Holland, et al., “Detection of specific polymerase chain reaction product by utilizing the 5′ to 3′ exonuclease activity of Thermus aquaticus DNA polymerase,” Proc Natl Acad Sci USA 1991; 88: 7276-80), as described below.
(§3) The mRNA and cDNA were prepared from the whole blood that was exposed to the dietary components, as well as the whole blood which remained unexposed. In brief, home-made 96-well filterplates were placed over collection plates, and 150 μl 5 mM Tris, pH 7.4, was applied. Following centrifugation at 120×g for 1 min at 4° C., 50 μl of blood samples were applied to each well and immediately centrifuged at 120×g for 2 min at 4° C., followed by washing of each well with 300 μl PBS once with centrifugation at 2000×g for 5 min at 4° C. Then, 60 μl stock lysis buffer, containing for example 0.5% N-Lauroylsarcosine, 4×SSC, 10 mM Tris HCl, pH 7.4, 1 mM EDTA, 0.1% IGEPAL CA-630, and 1.791 M guanidine thiocyanate, supplemented with 1% 2-mercaptoethanol (Bio Rad, Hercules, Calif., USA), 0.5 mg/ml proteinase K (Pierce, Rockford, Ill., USA), 0.1 mg/ml salmon sperm DNA (5 Prime Eppendorf/Brinkmann, Westbury, N.Y., USA), 0.1 mg/ml E. coli tRNA (Sigma), a cocktail of 10 mM each of the specific reverse primers shown in Table 2, and standard RNA34 oligonucleotides, were applied to the filterplates, followed by incubation at 37° C. for 10 min. The filterplates were then placed over oligo(dT)-immobilized microplates (GenePlate, RNAture), and centrifuged at 2000×g for 5 min at 4° C. Following overnight storage at 4° C., the microplates were washed with 100 μl plain lysis buffer 3 times, followed by 150 μl of wash buffer (0.5 M NaCl, 10 mM Tris, pH 7.4, 1 mM EDTA) 3 times at 4° C. The cDNA was directly synthesized in each well by adding 30 μl of buffer containing 1×RT-buffer, 1.25 mM each of dNTP, 4 units rRNasin, and 80 units of MMLV reverse transcriptase (Promega) (without primers), and incubation at 37° C. for 2 hours. The specific primer-primed cDNA existed in solution, and oligo(dT)-primed cDNA stayed immobilized in the microplate. […]

TNF-α mRNA = assay: PHA-induced TNF-α mRNA expression in heparinized whole blood ex vivo; settings: for ΔΔCt (mean ± standard deviation, n = 3), TNFα mRNA: supplement 30 min, then 100 μg/mL PHA 2 h, concentrations per footnote; for effect on PHA-induced TNF-α expression, in words: summary over 7 subjects of Table I
Protocol: as §1, §2, §3

IL-2 mRNA = assay: PHA-induced IL-2 mRNA expression in heparinized whole blood ex vivo; settings: for ΔΔCt (mean ± standard deviation, n = 3), IL-2 mRNA: supplement 30 min, concentrations per footnote; for effect on PHA-induced IL-2 expression, in words: summary over 7 subjects of Table I
Protocol: as §1, §2, §3

[1] = system: CD32A mRNA (IgG Fc receptor); assay: CD32A mRNA level in leukocytes after exposure of whole blood to dietary components (no stimulating agent); settings: one individual; 3 hours at 37° C.; PBS control
Protocol: In brief, home-made 96-well filterplates were placed over collection plates, and 150 μl 5 mM Tris, pH 7.4, was applied. Following centrifugation at 120×g for 1 min at 4° C., 50 μl of blood samples were applied to each well and immediately centrifuged at 120×g for 2 min at 4° C., followed by washing of each well with 300 μl PBS once with centrifugation at 2000×g for 5 min at 4° C. […] The filterplates were then placed over oligo(dT)-immobilized microplates (GenePlate, RNAture), and centrifuged at 2000×g for 5 min at 4° C. Following overnight storage at 4° C., the microplates were washed with 100 μl plain lysis buffer 3 times, followed by 150 μl of wash buffer (0.5 M NaCl, 10 mM Tris, pH 7.4, 1 mM EDTA) 3 times at 4° C. […] The specific primer-primed cDNA existed in solution, and oligo(dT)-primed cDNA stayed immobilized in the microplate. […] Each gene was amplified in separate wells. The Ct was determined by analytical software (SDS, ABI).

[2] = Subject 1, then 100 μg/mL PHA 2 h 37° C., negative = increased expression
[3] = Subject 2, then 100 μg/mL PHA 2 h
[4] = Subject 3, then 100 μg/mL PHA 2 h
[5] = Subject 4, then 100 μg/mL PHA 2 h
[6] = Subject 5, then 100 μg/mL PHA 2 h
[7] = Subject 6, then 100 μg/mL PHA 2 h
[8] = Subject 7, then 100 μg/mL PHA 2 h

## COc1cc(/C=C/C(=O)CC(=O)/C=C/c2ccc(O)c(OC)c2)ccc1O [Cur., curcumin]
IL-4 mRNA; Subject 1
  ΔΔCt (mean ± standard deviation, n = 3), IL-4 mRNA: 1.27 ± 0.78
IL-4 mRNA; Subject 2
  ΔΔCt (mean ± standard deviation, n = 3), IL-4 mRNA: 3.09 ± 0.15
IL-4 mRNA; Subject 3
  ΔΔCt (mean ± standard deviation, n = 3), IL-4 mRNA: −0.01 ± 0.07
IL-4 mRNA; Subject 4
  ΔΔCt (mean ± standard deviation, n = 3), IL-4 mRNA: 0.10 ± 0.27
IL-4 mRNA; Subject 5
  ΔΔCt (mean ± standard deviation, n = 3), IL-4 mRNA: 0.00 ± 0.20
IL-4 mRNA; Subject 6
  ΔΔCt (mean ± standard deviation, n = 3), IL-4 mRNA: 0.10 ± 0.13
IL-4 mRNA; Subject 7
  ΔΔCt (mean ± standard deviation, n = 3), IL-4 mRNA: 0.52 ± 0.26
IL-4 mRNA
  effect on PHA-induced IL-4 expression, in words: significantly decreased IL-2, IL-4, and TNF-α expression in 2 cases
TNF-α mRNA; Subject 1
  ΔΔCt (mean ± standard deviation, n = 3), TNFα mRNA: 3.52 ± 1.84
TNF-α mRNA; Subject 2
  ΔΔCt (mean ± standard deviation, n = 3), TNFα mRNA: 3.64 ± 2.26
TNF-α mRNA; Subject 3
  ΔΔCt (mean ± standard deviation, n = 3), TNFα mRNA: 0.83 ± 0.60
TNF-α mRNA; Subject 4
  ΔΔCt (mean ± standard deviation, n = 3), TNFα mRNA: 0.45 ± 0.15
TNF-α mRNA; Subject 5
  ΔΔCt (mean ± standard deviation, n = 3), TNFα mRNA: 0.13 ± 0.17
TNF-α mRNA; Subject 6
  ΔΔCt (mean ± standard deviation, n = 3), TNFα mRNA: 0.07 ± 0.01
TNF-α mRNA; Subject 7
  ΔΔCt (mean ± standard deviation, n = 3), TNFα mRNA: 0.12 ± 0.21
TNF-α mRNA
  effect on PHA-induced TNF-α expression, in words: significantly decreased IL-2, IL-4, and TNF-α expression in 2 cases
IL-2 mRNA; [2]
  ΔΔCt (mean ± standard deviation, n = 3), IL-2 mRNA: 1.47 ± 0.59
IL-2 mRNA; [3]
  ΔΔCt (mean ± standard deviation, n = 3), IL-2 mRNA: 2.51 ± 0.23
IL-2 mRNA; [4]
  ΔΔCt (mean ± standard deviation, n = 3), IL-2 mRNA: 0.31 ± 0.14
IL-2 mRNA; [5]
  ΔΔCt (mean ± standard deviation, n = 3), IL-2 mRNA: 0.33 ± 0.27
IL-2 mRNA; [6]
  ΔΔCt (mean ± standard deviation, n = 3), IL-2 mRNA: 0.03 ± 0.20
IL-2 mRNA; [7]
  ΔΔCt (mean ± standard deviation, n = 3), IL-2 mRNA: 0.01 ± 0.14
IL-2 mRNA; [8]
  ΔΔCt (mean ± standard deviation, n = 3), IL-2 mRNA: −0.01 ± 0.21
IL-2 mRNA
  effect on PHA-induced IL-2 expression, in words: significantly decreased IL-2, IL-4, and TNF-α expression in 2 cases

## O=C(O[C@@H]1Cc2c(O)cc(O)cc2O[C@@H]1c1cc(O)c(O)c(O)c1)c1cc(O)c(O)c(O)c1 [EGCG, epigallocatechin gallate]
IL-4 mRNA; Subject 1
  ΔΔCt (mean ± standard deviation, n = 3), IL-4 mRNA: −1.83 ± 0.20
IL-4 mRNA; Subject 2
  ΔΔCt (mean ± standard deviation, n = 3), IL-4 mRNA: −1.56 ± 0.46
IL-4 mRNA; Subject 3
  ΔΔCt (mean ± standard deviation, n = 3), IL-4 mRNA: −0.82 ± 0.34
IL-4 mRNA; Subject 4
  ΔΔCt (mean ± standard deviation, n = 3), IL-4 mRNA: 0.92 ± 0.25
IL-4 mRNA; Subject 5
  ΔΔCt (mean ± standard deviation, n = 3), IL-4 mRNA: −1.37 ± 0.3
IL-4 mRNA; Subject 6
  ΔΔCt (mean ± standard deviation, n = 3), IL-4 mRNA: −0.9 ± 0.01
IL-4 mRNA; Subject 7
  ΔΔCt (mean ± standard deviation, n = 3), IL-4 mRNA: −1.47 ± 0.41
IL-4 mRNA
  effect on PHA-induced IL-4 expression, in words: enhanced PHA-induced IL-4 expression in all 7 cases
[1]
  conclusion from CD32A mRNA levels (FIG. 2), in words: would be suitable for use in this individual in a diet optimized for anti-cancer activity
TNF-α mRNA; Subject 1
  ΔΔCt (mean ± standard deviation, n = 3), TNFα mRNA: −1.14 ± 0.32
TNF-α mRNA; Subject 2
  ΔΔCt (mean ± standard deviation, n = 3), TNFα mRNA: −0.63 ± 0.66
TNF-α mRNA; Subject 3
  ΔΔCt (mean ± standard deviation, n = 3), TNFα mRNA: 0.33 ± 0.62
TNF-α mRNA; Subject 4
  ΔΔCt (mean ± standard deviation, n = 3), TNFα mRNA: −0.16 ± 0.12
TNF-α mRNA; Subject 5
  ΔΔCt (mean ± standard deviation, n = 3), TNFα mRNA: −1.22 ± 0.29
TNF-α mRNA; Subject 6
  ΔΔCt (mean ± standard deviation, n = 3), TNFα mRNA: −0.66 ± 0.14
TNF-α mRNA; Subject 7
  ΔΔCt (mean ± standard deviation, n = 3), TNFα mRNA: −0.94 ± 0.46
TNF-α mRNA
  effect on PHA-induced TNF-α expression, in words: showed individual variations
IL-2 mRNA; [2]
  ΔΔCt (mean ± standard deviation, n = 3), IL-2 mRNA: −0.1 ± 0.02
IL-2 mRNA; [3]
  ΔΔCt (mean ± standard deviation, n = 3), IL-2 mRNA: −0.67 ± 0.48
IL-2 mRNA; [4]
  ΔΔCt (mean ± standard deviation, n = 3), IL-2 mRNA: 1.32 ± 0.54
IL-2 mRNA; [5]
  ΔΔCt (mean ± standard deviation, n = 3), IL-2 mRNA: 0.81 ± 0.11
IL-2 mRNA; [6]
  ΔΔCt (mean ± standard deviation, n = 3), IL-2 mRNA: −0.99 ± 0.33
IL-2 mRNA; [7]
  ΔΔCt (mean ± standard deviation, n = 3), IL-2 mRNA: 1.1 ± 0.14
IL-2 mRNA; [8]
  ΔΔCt (mean ± standard deviation, n = 3), IL-2 mRNA: −0.41 ± 0.29
IL-2 mRNA
  effect on PHA-induced IL-2 expression, in words: 3 out of 7 persons showed decreases, 1 showed an increase, and 3 were unchanged
